Activity calls are given as the source filed them.
How the values were obtained:
[1] = molecular target: Large T antigen (Simian virus 40, UniProt P03070); format: functional, Betapolyomavirus macacae;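 further: Confirmatory-stage PubChem screen for compounds that inhibit SV40 T antigen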
[2] = Trypanosoma cruzi growth suppression in host cells – NIH3T3 host cells, beta-gal luminescence, confirmation (AID 2044); format: functional, cell-based;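 further: intracellular parasites grown in NIH/3T3 mouse fibroblasts as host cells; luminescent beta-galactosidase reporter signal from transgenic T. cruzi replicating inside host cells; inhibitors lower the luminescence signal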
[3] = NIH3T3 cell viability loss – ATP luminescence, mouse fibroblasts, counter-screen, dose response (AID 2010); format: functional, cell-based;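 further: cells exposed to compound for about 90 hours before reading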
[4] = Fluorescence-based cell-based high throughput dose response assay for inhibitors of the interaction of nucleotide-binding oligomerization domain containing 2 (NOD2) and the receptor-interacting serine-threonine kinase 2 (RIPK2).; format: functional; details: Homo sapiens
[5] = molecular target: Beta Lactamase (Pseudomonas aeruginosa, UniProt Q932Y6); experiment: BLA reporter interference, concentration series – BLA reporter cells, FRET fluorescence, artefact control for NOD2-RIPK2 interaction inhibitor project, dose response (AID 651552); format: functional, cell-based
Sequence of Beta Lactamase (Q932Y6 whole entry): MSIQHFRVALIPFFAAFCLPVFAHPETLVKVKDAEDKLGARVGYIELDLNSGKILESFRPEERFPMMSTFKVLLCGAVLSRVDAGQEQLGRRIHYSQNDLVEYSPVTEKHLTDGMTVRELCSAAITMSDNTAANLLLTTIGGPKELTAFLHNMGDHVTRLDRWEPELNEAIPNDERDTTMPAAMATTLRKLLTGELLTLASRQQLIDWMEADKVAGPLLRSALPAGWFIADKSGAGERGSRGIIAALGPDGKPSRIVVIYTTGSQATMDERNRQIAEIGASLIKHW

[6] = molecular target: Fructose-bisphosphate aldolase (Mycobacterium tuberculosis, UniProt P9WQA3); experiment: Fluorescence-based biochemical high throughput dose response assay for inhibitors of the fructose-bisphosphate aldolase (FBA) of M. tuberculosis.; format: functional
Sequence of Fructose-bisphosphate aldolase (P9WQA3 whole entry): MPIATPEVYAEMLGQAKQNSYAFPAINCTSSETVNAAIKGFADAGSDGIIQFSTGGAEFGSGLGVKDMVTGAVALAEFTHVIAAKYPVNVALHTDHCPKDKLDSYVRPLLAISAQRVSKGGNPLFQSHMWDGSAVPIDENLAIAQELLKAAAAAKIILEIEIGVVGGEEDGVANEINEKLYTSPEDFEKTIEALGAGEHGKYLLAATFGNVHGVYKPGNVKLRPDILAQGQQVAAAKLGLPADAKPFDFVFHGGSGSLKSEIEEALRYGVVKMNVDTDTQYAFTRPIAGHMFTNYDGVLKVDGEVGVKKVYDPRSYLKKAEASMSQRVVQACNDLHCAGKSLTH

[7] = molecular target: T1, Beta-lactamase (Salmonella choleraesuis (strain SC-B67), UniProt Q5J463); experiment: Epi-absorbance-based counterscreen for selective VIM-2 inhibitors: dose response biochemical high throughput screening assay to identify inhibitors of TEM-1 serine-beta-lactamase.
T1 sequence (Q5J463 whole entry): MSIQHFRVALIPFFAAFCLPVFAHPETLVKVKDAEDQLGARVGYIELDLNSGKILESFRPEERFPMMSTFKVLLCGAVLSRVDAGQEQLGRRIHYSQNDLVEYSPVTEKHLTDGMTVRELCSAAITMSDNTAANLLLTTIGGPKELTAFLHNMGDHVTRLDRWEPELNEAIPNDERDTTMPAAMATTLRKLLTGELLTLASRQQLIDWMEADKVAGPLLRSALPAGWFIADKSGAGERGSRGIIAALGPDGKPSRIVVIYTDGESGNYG

[8] = molecular target: T2, Beta-lactamase (Pseudomonas aeruginosa, UniProt Q79MP6); experiment: inhibition of IMP-1 beta-lactamase activity – biochemical, epi-absorbance, selectivity assay for VIM-2 inhibitor project, dose response (AID 1920)
T2 sequence (Q79MP6 whole entry): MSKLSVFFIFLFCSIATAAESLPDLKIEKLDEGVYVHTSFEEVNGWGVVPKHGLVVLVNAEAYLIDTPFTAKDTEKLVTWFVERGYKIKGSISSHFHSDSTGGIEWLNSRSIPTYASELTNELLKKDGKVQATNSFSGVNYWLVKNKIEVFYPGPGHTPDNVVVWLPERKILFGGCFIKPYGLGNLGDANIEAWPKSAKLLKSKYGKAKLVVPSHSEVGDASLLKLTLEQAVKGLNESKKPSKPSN

[9] = molecular target: T2, Beta-lactamase; experiment: […] counterscreen for selective VIM-2 inhibitors: dose response biochemical high throughput screening assay to identify inhibitors of IMP-1 metallo-beta-lactamase.
[10] = molecular target: FAD-linked sulfhydryl oxidase ALR (Homo sapiens, UniProt P55789); experiment: ALR-catalysed DTT oxidation blockers – biochemical, H2O2 detection, luminescence, cherry-pick, dose response (AID 493248)
Sequence of FAD-linked sulfhydryl oxidase ALR (P55789 whole entry): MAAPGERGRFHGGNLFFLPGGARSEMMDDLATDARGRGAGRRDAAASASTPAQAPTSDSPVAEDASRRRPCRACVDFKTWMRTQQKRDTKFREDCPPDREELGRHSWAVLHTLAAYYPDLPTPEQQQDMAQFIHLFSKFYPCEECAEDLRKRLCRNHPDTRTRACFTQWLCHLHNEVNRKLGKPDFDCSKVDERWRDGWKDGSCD

[11] = molecular target: Galanin receptor type 3 (Homo sapiens, UniProt O60755); experiment: Fluorescence-based cell-based primary high throughput dose response assay to identify antagonists of the Galanin Receptor 3 (GalR3).; format: functional
Sequence of Galanin receptor type 3 (O60755 whole entry): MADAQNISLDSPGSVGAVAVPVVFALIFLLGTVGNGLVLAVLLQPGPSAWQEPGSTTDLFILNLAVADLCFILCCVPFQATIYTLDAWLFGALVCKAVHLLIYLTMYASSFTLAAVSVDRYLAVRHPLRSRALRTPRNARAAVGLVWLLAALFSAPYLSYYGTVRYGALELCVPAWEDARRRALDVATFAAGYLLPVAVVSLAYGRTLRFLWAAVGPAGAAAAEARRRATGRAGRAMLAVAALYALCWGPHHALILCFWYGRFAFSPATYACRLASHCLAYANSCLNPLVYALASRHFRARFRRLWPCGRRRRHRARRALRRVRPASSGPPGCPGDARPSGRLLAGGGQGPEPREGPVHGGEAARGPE

[12] = cells; format: functional, cell-based; details: HEK-CNG
[13] = molecular target: T2, Beta-lactamase
[14] = molecular target: T1, Beta-lactamase
[15] = molecular target: Dual specificity tyrosine-phosphorylation-regulated kinase 1A (Rattus norvegicus, UniProt Q63470); format: biochemical, Homo sapiens
[16] = molecular target: T3, Microphthalmia-associated transcription factor (Homo sapiens, UniProt O75030); experiment: reducers of TRPM1 reporter luminescence, concentration series – cell-based, SK-MEL-5, cherry-picked, set 3, MITF inhibitor project, dose response (AID 493073); format: functional;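 further: SK-MEL-5 melanoma cells with luciferase driven by the MITF target TRPM1 promoter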
T3 sequence (O75030 whole entry): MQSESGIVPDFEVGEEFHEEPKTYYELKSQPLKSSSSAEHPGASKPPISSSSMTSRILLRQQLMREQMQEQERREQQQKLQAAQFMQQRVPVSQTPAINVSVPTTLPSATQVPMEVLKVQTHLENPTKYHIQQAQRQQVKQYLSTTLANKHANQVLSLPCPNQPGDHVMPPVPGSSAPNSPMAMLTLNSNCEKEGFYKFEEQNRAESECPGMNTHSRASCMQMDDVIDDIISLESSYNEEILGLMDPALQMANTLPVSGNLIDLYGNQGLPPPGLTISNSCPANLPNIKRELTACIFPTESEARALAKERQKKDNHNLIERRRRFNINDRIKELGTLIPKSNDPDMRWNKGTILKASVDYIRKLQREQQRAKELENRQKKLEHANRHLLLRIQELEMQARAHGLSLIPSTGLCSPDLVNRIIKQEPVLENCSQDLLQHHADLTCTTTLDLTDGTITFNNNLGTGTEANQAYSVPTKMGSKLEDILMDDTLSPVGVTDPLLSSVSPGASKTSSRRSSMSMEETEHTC

[17] = molecular target: Nuclear receptor subfamily 5 group A member 2 (Homo sapiens, UniProt O00482); format: functional, cell-based;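 further: HEK293T cells transfected with LRH-1 and a StAR promoter luciferase reporter; potency for inhibitors that lower LRH-1 driven reporter light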
Sequence of Nuclear receptor subfamily 5 group A member 2 (O00482 whole entry): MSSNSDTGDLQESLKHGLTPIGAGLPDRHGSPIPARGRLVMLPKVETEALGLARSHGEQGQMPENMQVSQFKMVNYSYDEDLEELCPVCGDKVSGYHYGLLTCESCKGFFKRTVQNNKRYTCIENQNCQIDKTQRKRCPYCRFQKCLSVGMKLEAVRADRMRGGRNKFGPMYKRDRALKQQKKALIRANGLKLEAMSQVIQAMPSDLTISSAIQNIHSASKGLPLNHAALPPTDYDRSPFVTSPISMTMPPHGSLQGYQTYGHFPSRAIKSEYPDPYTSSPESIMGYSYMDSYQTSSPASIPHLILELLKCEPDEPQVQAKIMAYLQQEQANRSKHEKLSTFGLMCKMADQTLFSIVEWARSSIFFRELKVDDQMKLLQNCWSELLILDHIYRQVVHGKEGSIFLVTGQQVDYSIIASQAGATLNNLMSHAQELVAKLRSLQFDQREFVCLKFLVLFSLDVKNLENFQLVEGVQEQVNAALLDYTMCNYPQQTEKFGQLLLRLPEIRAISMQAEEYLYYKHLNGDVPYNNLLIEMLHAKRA

[18] = molecular target: Steroidogenic factor 1 (Homo sapiens, UniProt Q13285); experiment: Counterscreen for inverse agonists of the liver receptor homolog-1 (LRH-1; NR5A2): Luminescence-based cell-based high throughput dose response assay to identify inverse agonists of the Steroidogenic Factor 1 Nuclear Receptor (SF1; NR5A1).; format: functional
Sequence of Steroidogenic factor 1 (Q13285 whole entry): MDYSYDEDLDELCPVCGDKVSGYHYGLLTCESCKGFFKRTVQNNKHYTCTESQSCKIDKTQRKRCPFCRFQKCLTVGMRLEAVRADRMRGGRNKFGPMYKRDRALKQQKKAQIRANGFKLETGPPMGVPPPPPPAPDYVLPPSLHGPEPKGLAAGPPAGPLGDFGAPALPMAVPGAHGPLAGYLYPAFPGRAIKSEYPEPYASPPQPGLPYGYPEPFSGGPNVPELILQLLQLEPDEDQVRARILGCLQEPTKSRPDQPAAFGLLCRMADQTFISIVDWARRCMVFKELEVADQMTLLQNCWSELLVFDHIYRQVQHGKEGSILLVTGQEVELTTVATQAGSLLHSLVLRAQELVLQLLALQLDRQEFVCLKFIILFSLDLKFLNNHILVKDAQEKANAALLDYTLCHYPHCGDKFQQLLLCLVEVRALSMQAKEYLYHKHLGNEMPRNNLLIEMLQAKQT

[19] = nonselective StAR promoter luciferase inhibitors – cell-based, luminescence, luciferase reporter, counter-screen for LRH-1 inverse agonist project, dose response (AID 651969); format: functional
[20] = tested on: Jurkat; experiment: blockers of NF-kB activation in T cells – Jurkat, luciferase reporter, luminescence, B- and T-cell, dose response (AID 489004); format: functional, cell-based; details: Homo sapiens;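 further: NF-kB luciferase reporter Jurkat cells stimulated with PMA plus ionomycin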
[21] = HEK-293T viability loss, compound-treated – cell-based, uHTS hits, cytotoxicity control for B/T-cell NF-kB inhibitor project, dose response (AID 489019); format: functional;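 further: IC50 reflects cytotoxicity as loss of cell viability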
[22] = tested on: INS1; experiment: INS-1E survival protection against cytokine death – cell-based, luminescence, retest, dose response (AID 449756); format: functional; details: Rattus norvegicus;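 further: cell death triggered by IL-1 beta plus TNF-alpha plus IFN-gamma mixture; protective hits raise ATP signal compared with cytokine alone wells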
[23] = reduction of Shn3 3'UTR-driven luciferase in osteoblasts – cell-based, Clone20 osteoblasts, firefly luciferase, cherry-picked, dose response (AID 624132); format: functional;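 further: firefly luciferase luminescence from reporter carrying the Shn3 3'UTR in osteoblasts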
[24] = loss of viability in HepG2 cells – cell-based, CellTiter-Glo, cherry-picked, cytotoxicity control for Shn3 inhibitor project, dose response (AID 624134); format: functional
[25] = non-specific 3'UTR reporter inhibition in Clone20-Shn3RL – cell-based, Renilla luciferase, cherry-picked, counter-screen for Shn3 inhibitor project, dose response (AID 624133); format: functional
[26] = molecular target: T4, COUP transcription factor 2 (Homo sapiens, UniProt P24468); experiment: Luminescence-based cell-based high throughput dose response assay to identify inhibitors of COUP-TFII (NR2F2).; format: functional;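 further: HEK293 cells transiently cotransfected with COUP-TFII expression vector and reporter; luciferase reporter luminescence driven by COUP-TFII from the pX2-168 reporter plasmid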
T4 sequence (P24468 whole entry): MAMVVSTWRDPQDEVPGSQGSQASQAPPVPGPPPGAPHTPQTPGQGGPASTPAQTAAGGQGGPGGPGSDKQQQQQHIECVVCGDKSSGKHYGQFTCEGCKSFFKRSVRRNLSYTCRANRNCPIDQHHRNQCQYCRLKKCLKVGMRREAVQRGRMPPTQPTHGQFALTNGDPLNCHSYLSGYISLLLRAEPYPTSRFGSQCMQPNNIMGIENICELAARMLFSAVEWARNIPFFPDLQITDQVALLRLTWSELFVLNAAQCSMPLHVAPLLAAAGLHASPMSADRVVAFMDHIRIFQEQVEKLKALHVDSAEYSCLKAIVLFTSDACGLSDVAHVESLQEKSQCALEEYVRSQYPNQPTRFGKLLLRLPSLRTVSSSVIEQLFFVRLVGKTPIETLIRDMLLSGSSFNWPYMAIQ

[27] = molecular target: T5, DNA repair protein RAD52 homolog (Homo sapiens, UniProt P43351); format: functional, biochemical
T5 sequence (P43351 whole entry): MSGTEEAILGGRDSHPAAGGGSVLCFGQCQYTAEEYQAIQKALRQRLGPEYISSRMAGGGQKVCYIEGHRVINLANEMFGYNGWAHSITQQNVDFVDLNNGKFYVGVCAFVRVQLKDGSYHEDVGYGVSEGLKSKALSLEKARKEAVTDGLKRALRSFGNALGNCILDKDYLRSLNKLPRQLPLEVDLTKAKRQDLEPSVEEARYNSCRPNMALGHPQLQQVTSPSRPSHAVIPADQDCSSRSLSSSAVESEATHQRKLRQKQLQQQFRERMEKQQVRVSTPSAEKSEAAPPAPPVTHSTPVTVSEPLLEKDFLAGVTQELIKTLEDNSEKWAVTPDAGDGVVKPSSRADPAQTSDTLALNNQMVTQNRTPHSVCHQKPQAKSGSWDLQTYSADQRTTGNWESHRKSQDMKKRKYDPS

[28] = molecular target: Paired box protein Pax-8 (Homo sapiens, UniProt Q06710); experiment: PAX8 transcriptional activity inhibition in RMG-I – RMG-I cells, luciferase, cherry-pick, dose response (AID 687027); format: functional, cell-based;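 further: luciferase reporter driven by Pax8 target thyroperoxidase promoter measured by SteadyGlo luminescence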
Sequence of Paired box protein Pax-8 (Q06710 whole entry): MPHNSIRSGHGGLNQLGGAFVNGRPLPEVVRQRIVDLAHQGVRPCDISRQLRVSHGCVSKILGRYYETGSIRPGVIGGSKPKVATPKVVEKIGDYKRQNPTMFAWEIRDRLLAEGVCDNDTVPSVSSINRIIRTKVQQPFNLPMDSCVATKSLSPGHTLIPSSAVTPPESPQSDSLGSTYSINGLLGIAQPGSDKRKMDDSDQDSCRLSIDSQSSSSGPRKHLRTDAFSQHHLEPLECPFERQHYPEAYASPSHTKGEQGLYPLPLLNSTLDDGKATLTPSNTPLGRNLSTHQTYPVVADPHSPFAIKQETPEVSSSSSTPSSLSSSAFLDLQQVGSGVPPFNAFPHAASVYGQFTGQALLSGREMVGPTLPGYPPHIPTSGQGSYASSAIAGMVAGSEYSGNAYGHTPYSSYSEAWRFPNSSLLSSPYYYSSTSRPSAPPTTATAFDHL

[29] = general cell-killing toxicity readout – plate reader, dry powder samples, cytotoxicity control for PAX8 inhibitor project, dose response (AID 743021); format: functional, cell-based
[30] = molecular target: T6, Probable nicotinate-nucleotide adenylyltransferase (Staphylococcus aureus (strain N315), UniProt P65502); format: functional, Staphylococcus aureus subsp. aureus N315;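 on IC50 Mean: confirmatory dose-response retesting of NadD inhibitor hits first found in an ultra-high-throughput screen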
T6 sequence (P65502 whole entry): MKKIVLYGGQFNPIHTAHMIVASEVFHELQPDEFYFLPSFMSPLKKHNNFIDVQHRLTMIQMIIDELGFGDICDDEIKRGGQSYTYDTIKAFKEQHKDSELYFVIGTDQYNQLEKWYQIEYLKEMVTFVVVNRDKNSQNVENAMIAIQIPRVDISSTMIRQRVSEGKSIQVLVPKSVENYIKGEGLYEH

[31] = molecular target: T6, Probable nicotinate-nucleotide adenylyltransferase; format: functional, Staphylococcus aureus subsp. aureus N315; details: read-out: IC50_Mean
[32] = T. cruzi growth inhibition in host cells, dose response, cell-based, plate reader, dry powder, set 2 (AID 652275); format: functional
[33] = tested on: Streptococcus sp. 'group A'; experiment: Streptococcus pyogenes SK(-)GAS viability under kanamycin – luminescence, BacTiterGlo, confirmation, counter-screen for streptokinase expression inhibitor project, dose response (AID 1900); format: functional, organism-based
[34] = molecular target: T7, Streptokinase A (Streptococcus pyogenes serotype M1, UniProt P10520); experiment: viability-normalized secreted streptokinase activity reduction – plasminogen activation absorbance, OD405, dose response (AID 1914); format: functional, Streptococcus pyogenes M1 GAS;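 further: secreted streptokinase activity via plasminogen activation per viability signal from cell pellet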
T7 sequence (P10520 whole entry): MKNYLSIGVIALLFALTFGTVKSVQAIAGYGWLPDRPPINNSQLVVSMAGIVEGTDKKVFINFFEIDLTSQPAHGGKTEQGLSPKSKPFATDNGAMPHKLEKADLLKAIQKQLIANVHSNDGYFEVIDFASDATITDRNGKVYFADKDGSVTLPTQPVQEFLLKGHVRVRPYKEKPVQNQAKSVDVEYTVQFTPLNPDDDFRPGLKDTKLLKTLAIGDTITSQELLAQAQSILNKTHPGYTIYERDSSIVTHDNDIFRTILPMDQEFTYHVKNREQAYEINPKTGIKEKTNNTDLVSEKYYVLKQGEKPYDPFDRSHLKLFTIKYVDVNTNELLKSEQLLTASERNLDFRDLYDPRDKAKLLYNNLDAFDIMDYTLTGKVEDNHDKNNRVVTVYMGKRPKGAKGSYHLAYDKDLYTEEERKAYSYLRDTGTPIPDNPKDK

[35] = tested on: Streptococcus; experiment: GAS UMAA2166 growth inhibition – luminescence, BacTiterGlo, counter-screen for streptokinase expression inhibitor project, dose response (AID 1915); format: functional, organism-based;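 further: potency for reduction of bacterial viability or growth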
[36] = molecular target: T8, Ubiquitin-conjugating enzyme E2 N (Homo sapiens, UniProt P61088); format: functional;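 further: Dose-response confirmation in a TR-FRET assay detecting UBC13-driven polyubiquitin chain formation, inhibition measured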
T8 sequence (P61088 whole entry): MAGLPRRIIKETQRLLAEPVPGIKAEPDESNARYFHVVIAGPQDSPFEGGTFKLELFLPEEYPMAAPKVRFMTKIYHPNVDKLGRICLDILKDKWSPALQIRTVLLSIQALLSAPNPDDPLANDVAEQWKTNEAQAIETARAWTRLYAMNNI

[37] = activation of miR-122 Renilla sensor silencing – cell-based, Huh7 psiCHECK-miR122, Renilla luciferase, cherry-picked, dose response (AID 651956); format: functional;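 further: huh7 hepatoma cells stably carrying a psiCHECK-2 miR-122 sensor plasmid; renilla luciferase signal reporting endogenous miR-122 activity after 48 h compound exposure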

Sequence of Large T antigen (P03070 whole entry): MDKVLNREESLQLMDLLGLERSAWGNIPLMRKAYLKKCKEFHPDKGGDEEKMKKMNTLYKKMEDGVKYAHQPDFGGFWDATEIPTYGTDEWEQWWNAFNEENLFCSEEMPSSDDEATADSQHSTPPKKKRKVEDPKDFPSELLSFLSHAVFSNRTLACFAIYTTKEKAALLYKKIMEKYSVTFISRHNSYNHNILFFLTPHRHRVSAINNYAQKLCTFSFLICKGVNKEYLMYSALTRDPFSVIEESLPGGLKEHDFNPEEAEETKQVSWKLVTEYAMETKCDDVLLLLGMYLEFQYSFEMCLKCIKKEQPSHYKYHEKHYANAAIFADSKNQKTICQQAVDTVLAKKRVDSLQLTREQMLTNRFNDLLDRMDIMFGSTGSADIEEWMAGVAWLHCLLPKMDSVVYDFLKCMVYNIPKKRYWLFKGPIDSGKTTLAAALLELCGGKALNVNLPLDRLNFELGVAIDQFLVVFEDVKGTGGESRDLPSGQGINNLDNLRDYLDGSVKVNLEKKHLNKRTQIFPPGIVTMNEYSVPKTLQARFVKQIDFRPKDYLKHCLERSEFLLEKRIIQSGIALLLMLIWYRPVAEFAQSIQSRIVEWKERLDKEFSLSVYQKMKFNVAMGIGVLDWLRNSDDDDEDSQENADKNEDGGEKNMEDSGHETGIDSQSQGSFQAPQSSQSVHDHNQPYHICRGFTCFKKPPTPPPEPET

O=C(Nc1cccc(N2C(=O)C=CC2=O)c1)c1cccs1
IC50 [1]: 70.5 µM (active) | EC50 [2]: 2.12 µM (active) | EC50 [3]: 4.6 µM (active) | IC50 [4]: 2.27 µM (active) | IC50 [5]: 14.1 µM (inactive)

CC(=O)NCCNC(=O)C1Cc2c(-c3ccc4c(c3)OCO4)ccnc2O1 (centres undefined)
IC50 [6]: 1.73 µM (active)

O=C(O)c1c(C(=O)O)c(-c2ccc(Br)cc2)n2c1CSC2
IC50 [7]: > 59.6 µM (inactive) | IC50 [8]: > 59.6 µM (inactive) | IC50 [9]: 41.9 µM (inactive) | AC50 [10]: 5.35 µM (active)

Sc1nnc(C2CC2)n1Cc1ccco1
IC50 [7]: > 59.6 µM (inactive) | IC50 [8]: > 59.6 µM (inactive) | IC50 [9]: > 59.6 µM (inactive)

CCC(NCCC(c1ccccc1)c1ccccc1)=C1C(=O)NC(=O)NC1=O
IC50 [11]: 5.36 µM (active) | EC50 [12]: > 29.9 µM (inactive)

CCCCC(Sc1nc(N)c(NC(=O)c2ccco2)c(=O)[nH]1)C(=O)O (centres undefined)
IC50 [13]: > 59.6 µM (inactive) | IC50 [14]: > 59.6 µM (inactive)

CC1(C)C=Cc2cc3ccc(=O)oc3cc2O1 [XANTHYLETIN]
AC50 [15]: 8.65 µM (active) | IC50 [6]: > 1.11 µM (active)

Cc1ccccc1OCC(=O)N/N=C/c1ccc([N+](=O)[O-])o1
EC50 [2]: 0.151 µM (active) | EC50 [3]: > 30 µM (not active) | AC50 [16]: 8.22 µM (active) | IC50 [17]: 10.6 µM (inactive) | IC50 [18]: 6.24 µM (active) | IC50 [19]: 29.9 µM (inactive)

COc1ccc(CN(C)c2ccc(S(=O)(=O)N3CCN(C)CC3)cc2[N+](=O)[O-])cc1OC
IC50 [20]: > 80 µM (inactive) | IC50 [21]: > 80 µM (inactive) | AC50 [22]: 1.45 µM (active) | AC50 [23]: 0.691 µM (active) | AC50 [24]: 0.824 µM (active) | AC50 [25]: 23.8 µM (active) | IC50 [11]: 0.419 µM (active) | EC50 [12]: > 29.9 µM (inactive) | IC50 [26]: 2.05 µM (active)

CCSc1ccc(-c2cc(NC=O)c3ncc(-c4cccc(C(=O)NCCN(C)C)c4)n3c2)cc1
IC50 [4]: 11.8 µM (inactive) | IC50 [5]: 20 µM (inactive) | AC50 [27]: 1.14 µM (active) | AC50 [28]: 9.88 µM (active) | AC50 [29]: 53.9 µM (active)

CCC(=O)Nc1ccc(C(=O)COC(=O)c2nc3nccc(C)n3n2)cc1
IC50 [30]: 1.92 µM (active) | IC50 [31]: 4.5 µM (active)

C[C@H]1CN([C@@H](C)CO)C(=O)c2cccc(NC(=O)c3ccncc3)c2O[C@@H]1CN(C)Cc1ccc(F)c(F)c1
AC50 [32]: 0.0246 µM (active)

CC(C)(C)c1cc(NCCCn2ccnc2)n2ncc(-c3ccc(Cl)cc3)c2n1
EC50 [33]: 1.91 µM (active) | EC50 [34]: > 150 µM (not active) | EC50 [2]: 1.49 µM (active) | EC50 [3]: 5.5 µM (active) | EC50 [35]: 6.12 µM (active) | IC50 [36]: > 20 µM (inactive) | AC50 [37]: 1.45 µM (active)
